Where “and” joins values, the source holds several entries; their conditions need not be identical. Equal values may be shown once. After the bases stand the sugars from the 5' end (letter, count) and the backbone: PS all phosphorothioate, else s phosphorothioate and o phosphodiester by linkage. Methylation of C is not given here. e = 2'-O-(2-methoxyethyl) (MOE); k = constrained ethyl (cEt); d = 2'-deoxy (DNA); m = 2'-O-methyl
Biological target: HSD17B13
Details: ASO, HepaRG

| Sequence | target mRNA inhibition (1 µM) | also measured |
| --- | --- | --- |
| GTAGCTTTTGTCCACC (sugars kkdddddddddkekek, PS) | 34% |  |
| GTAGGCTAAACCCTGG (sugars k3 d10 k3, PS) | 62% |  |
| GTAGTGTAAGCTGAGA (sugars k3 d10 k3, PS) | 81% |  |
| GTATAGCTGCATTTCT (sugars k3 d10 k3, PS) | 35% |  |
| GTATAGTATTCTTCAC (sugars k3 d10 k3, PS) | 81% | target mRNA inhibition (0.02 µM): 15%; target mRNA inhibition (0.078 µM): 4%; target mRNA inhibition (0.313 µM): 29%; target mRNA inhibition (1.25 µM): 61%; target mRNA inhibition (5 µM): 86% |
| GTATAGTTATCTTCTC (sugars k3 d1 m1 d8 k3, PS) | 54% |  |
| GTATAGTTATCTTCTC (sugars k3 d10 k3, PS) | 59% |  |
| GTATCTTATAAGACTA (sugars k3 d9 k3 e1, PS) | 72% |  |
| GTATGTTTATGTAAGC (sugars k3 d9 k3 e1, PS) | 71% |  |
| GTATGTTTATGTAAGC (sugars k3 d10 k3, PS) | 80% | target mRNA inhibition (0.02 µM): 0%; target mRNA inhibition (0.078 µM): 16%; target mRNA inhibition (0.313 µM): 33%; target mRNA inhibition (1.25 µM): 77%; target mRNA inhibition (5 µM): 87% |
| GTATTCCATCTATCAG (sugars k3 d10 k3, PS) | 52% |  |
| GTCATAAAAATCGCTG (sugars k3 d10 k3, PS) | 72% | target mRNA inhibition (0.02 µM): 25%; target mRNA inhibition (0.078 µM): 34%; target mRNA inhibition (0.313 µM): 51%; target mRNA inhibition (1.25 µM): 70%; target mRNA inhibition (5 µM): 86% |
| GTCATTTAGAATACGC (sugars k3 d10 k3, PS) | 46% |  |
| GTCCACTTGAATTCTG (sugars k3 d10 k3, PS) | 18% |  |
| GTCCAGAATAGAGTTG (sugars k3 d10 k3, PS) | 60% |  |
| GTCCAGGTTGAGATAA (sugars k3 d1 m1 d8 k3, PS) | 68% |  |
| GTCCAGGTTGAGATAA (sugars k3 d9 k3 e1, PS) | 52% |  |
| GTCCAGGTTGAGATAA (sugars kkdddddddddkekek, PS) | 36% |  |
| GTCCCAGCATTATTCA (sugars k3 d10 k3, PS) | 21% |  |
| GTCCTAGGGAGGAGGT (sugars k3 d10 k3, PS) | 36% |  |
| GTCGGATTATTTTTTC (sugars k3 d10 k3, PS) | 61% |  |
| GTCTAAAGTGCTGGTT (sugars k3 d10 k3, PS) | 39% |  |
| GTCTACCACATACGCA (sugars k3 d10 k3, PS) | 66% |  |
| GTCTACCTCTAAGTTA (sugars k3 d1 m1 d8 k3, PS) | 15% |  |

| Sequence | target mRNA inhibition (1 µM) | also measured |
| --- | --- | --- |
| GTCTTAAACCTTCCCT (sugars k3 d9 k3 e1, PS) | 50% |  |
| GTCTTGATGTAGTGGG (sugars k3 d9 k3 e1, PS) | 70% |  |
| GTCTTGATGTAGTGGG (sugars k3 d10 k3, PS) | 67% | target mRNA inhibition (0.02 µM): 17%; target mRNA inhibition (0.078 µM): 22%; target mRNA inhibition (0.313 µM): 41%; target mRNA inhibition (1.25 µM): 72%; target mRNA inhibition (5 µM): 87% |
| GTCTTGATGTAGTGGG (sugars kkdddddddddkekek, PS) | 18% |  |
| GTCTTGGTAATCTCTT (sugars k3 d10 k3, PS) | 37% |  |
| GTGAAATCTTGTGTAA (sugars k3 d10 k3, PS) | 44% |  |
| GTGCAAGATGATGACA (sugars k3 d10 k3, PS) | 19% |  |
| GTGCACTCATTCTGTG (sugars k3 d10 k3, PS) | 6% |  |
| GTGCATCTTAAGATAC (sugars k3 d9 k3 e1, PS) | 29% |  |
| GTGCCAAACCAATGTT (sugars k3 d10 k3, PS) | 43% |  |
| GTGCTGAGAAGATCGG (sugars k3 d10 k3, PS) | 0% |  |
| GTGGGATAAACTGTTC (sugars k3 d10 k3, PS) | 52% |  |
| GTGGTAACGGTGATCA (sugars k3 d10 k3, PS) | 49% |  |
| GTGTAAGCTGAGAGTT (sugars kkdddddddddkekek, PS) | 57% |  |
| GTGTAGTCCTAGGGAG (sugars k3 d10 k3, PS) | 67% |  |
| GTGTAGTTTGGTGGGC (sugars k3 d10 k3, PS) | 33% |  |
| GTTAATGTAGTGTTTA (sugars k3 d10 k3, PS) | 77% | target mRNA inhibition (0.02 µM): 7%; target mRNA inhibition (0.078 µM): 25%; target mRNA inhibition (0.313 µM): 45%; target mRNA inhibition (1.25 µM): 78%; target mRNA inhibition (5 µM): 92% |
| GTTAGAATAGTCTTCA (sugars k3 d9 k3 e1, PS) | 71% |  |
| GTTAGAATAGTCTTCA (sugars k3 d10 k3, PS) | 46% |  |
| GTTAGAATAGTCTTCA (sugars kkdddddddddkekek, PS) | 45% |  |
| GTTAGTATAGTTATCT (sugars kkdddddddddkekek, PS) | 51% |  |
| GTTATCAGAAACTTAT (sugars k3 d10 k3, PS) | 31% |  |
| GTTATTGTAGGGATTG (sugars k3 d10 k3, PS) | 69% |  |
| GTTAUTCTCTTGACAA (sugars k3 d1 m1 d8 k3, PS) | 29% |  |

| Sequence | target mRNA inhibition (1 µM) | also measured |
| --- | --- | --- |
| GTTCAGTCCTTGTGTA (sugars k3 d10 k3, PS) | 38% |  |
| GTTCTTATCCACACCT (sugars k3 d10 k3, PS) | 57% |  |
| GTTGAGATAAAGCTGC (sugars k3 d1 m1 d8 k3, PS) | 51% |  |
| GTTGAGATAAAGCTGC (sugars kkdddddddddkekek, PS) | 40% |  |
| GTTGATATTCTGTGGC (sugars k3 d9 k3 e1, PS) | 73% and 50% | target mRNA inhibition (0.02 µM): 23%; target mRNA inhibition (0.078 µM): 17%; target mRNA inhibition (0.313 µM): 49%; target mRNA inhibition (1.25 µM): 61%; target mRNA inhibition (5 µM): 55% |
| GTTGATATTCTGTGGC (sugars k3 d10 k3, PS) | 80% | target mRNA inhibition (0.02 µM): 23%; target mRNA inhibition (0.078 µM): 42%; target mRNA inhibition (0.313 µM): 53%; target mRNA inhibition (1.25 µM): 87%; target mRNA inhibition (5 µM): 93% |
| GTTGCACCGTTTTGGG (sugars kkdddddddddkekek, PS) | 35% |  |
| GTTTATCAGTAAAGTG (sugars k3 d10 k3, PS) | 64% |  |
| GTTTTGCAAGTTTATC (sugars k3 d10 k3, PS) | 73% |  |
| GTTTUTAAGAGGCATG (sugars k3 d1 m1 d8 k3, PS) | 38% |  |
| TAAAAAATTGGTTTCG (sugars k3 d10 k3, PS) | 22% |  |
| TAAAATAGAGTCGGTC (sugars k3 d1 m1 d8 k3, PS) | 52% |  |
| TAAAATAGAGTCGGTC (sugars k3 d9 k3 e1, PS) | 74% | target mRNA inhibition (0.02 µM): 0%; target mRNA inhibition (0.078 µM): 12%; target mRNA inhibition (0.313 µM): 31%; target mRNA inhibition (1.25 µM): 55%; target mRNA inhibition (5 µM): 77% |
| TAAACAATATTAAGGG (sugars k3 d10 k3, PS) | 0% |  |
| TAAACATAGGCTTAGT (sugars k3 d10 k3, PS) | 34% |  |
| TAAACATCTCTGGGAC (sugars k3 d9 k3 e1, PS) | 32% |  |
| TAAACCTTCCCTGTGT (sugars k3 d1 m1 d8 k3, PS) | 46% |  |
| TAAACTAAAGTACTTG (sugars k3 d10 k3, PS) | 1% |  |
| TAAACTAGTGGTAATG (sugars k3 d10 k3, PS) | 14% |  |
| TAAATACCCTTGGTGG (sugars k3 d10 k3, PS) | 7% |  |
| TAAATCAGGCAGTCAT (sugars k3 d10 k3, PS) | 35% |  |
| TAACTACATGACCTGG (sugars k3 d10 k3, PS) | 37% |  |
| TAACTGAGCTAGACAA (sugars k3 d10 k3, PS) | 53% |  |
| TAAGAGGCATGAAAGG (sugars kkdddddddddkekek, PS) | 54% |  |

| Sequence | target mRNA inhibition (1 µM) | also measured |
| --- | --- | --- |
| TAAGATACCCAGGTTG (sugars k3 d1 m1 d8 k3, PS) | 11% |  |
| TAAGCAGAATTGTGAA (sugars k3 d9 k3 e1, PS) | 52% |  |
| TAAGCTGAGAGTTCTA (sugars k3 d1 m1 d8 k3, PS) | 27% |  |
| TAAGCTGAGAGTTCTA (sugars kkdddddddddkekek, PS) | 29% |  |
| TAAGGATCATTGCAGA (sugars k3 d10 k3, PS) | 0% |  |
| TAAGTAGTCTGCCTGC (sugars k3 d10 k3, PS) | 19% |  |
| TAAGTATTCCATCTAT (sugars k3 d10 k3, PS) | 31% |  |
| TAATACATTAGCAAGC (sugars k3 d1 m1 d8 k3, PS) | 26% |  |
| TAATAGCCAGTACAGT (sugars k3 d1 m1 d8 k3, PS) | 51% |  |
| TAATAGCCAGTACAGT (sugars kkdddddddddkekek, PS) | 44% |  |
| TAATCATGGGACAGGA (sugars k3 d10 k3, PS) | 15% |  |
| TAATCTTGTGCTTGGA (sugars k3 d10 k3, PS) | 54% |  |
| TAATGTATGAGGTCTC (sugars k3 d10 k3, PS) | 51% |  |
| TAATTAATCTTGTTCG (sugars k3 d10 k3, PS) | 63% |  |
| TAATTCTAAACTAGTG (sugars k3 d10 k3, PS) | 11% |  |
| TACATATCAATGCCTT (sugars k3 d10 k3, PS) | 38% |  |
| TACCAAGAGGGTTTTT (sugars k3 d10 k3, PS) | 17% |  |
| TACTATTCTCCAACTC (sugars k3 d10 k3, PS) | 47% |  |
| TACTTACTTCTGTAGT (sugars k3 d10 k3, PS) | 12% |  |
| TAGAATAGTCTTCAGC (sugars k3 d9 k3 e1, PS) | 50% |  |
| TAGAATTAAGGGCTAT (sugars k3 d10 k3, PS) | 31% |  |
| TAGAATTGTCTGTTAG (sugars k3 d10 k3, PS) | 9% |  |
| TAGAGAGCATAAGTTA (sugars k3 d10 k3, PS) | 59% |  |
